# Experimental data published in patent publication US20250091995A1, “STABLE CRYSTAL OF 4-OXOQUINOLINE COMPOUND” (Japan Tobacco Inc., priority 2004, published 2025).
# Assays:
# Assay type in all cases: physicochemical
# [1] = Stability test under preservation conditions (appearance, HPLC purity, XRD, DSC); details: for Stability under various preservation conditions (overall evaluation): all preservation conditions; for Purity: HPLC
# Experimental: A sample was fixed to an aluminum cell, and the measurement was performed using an X-ray powder diffractometer (RINT 2000/PC Ultima^+, manufactured by Rigaku Corporation, X-ray source: Cu-Kα1 ray, tube voltage: 40 kV, tube electric current: […], scan speed: 5° per min, step width: 0.02°, diffraction angle: 5-40°), based on which the diffraction patterns were obtained. Crystal form I and crystal form II were subjected to measurement using a Differential Scanning Calorimetry (DSC) measurement apparatus (DSC8240, manufactured by Rigaku Corporation), under atmosphere, measurement sample 5±1 mg, temperature rise rate: 10° C./min, aluminum open pan, and alumina oxide as a reference. The enthalpy and extrapolated onset temperature at an endothermic peak on the obtained DSC curve were determined. Crystal form III was subjected to measurement using a DSC measurement apparatus (DSC8240, manufactured by Rigaku Corporation), under atmosphere, measurement sample 5.0+0.5 mg, temperature rise rate: 5° C./min, aluminum closed pan, and alumina oxide as a reference. The enthalpy and extrapolated onset temperature at an endothermic peak on the obtained DSC curve were determined. Each sample (crystal form I and crystal form II, ca. 10 mg) was dissolved in acetonitrile to make an amount of 10 mL and used as a sample solution. This solution ([…]) was applied to high performance liquid chromatography (HPLC) under the following conditions. The peak area of each sample solution was measured by automatic integration, and the purity was determined by the following formula. The purity is shown in the Tables 5 and 6 below. • Detector: UV absorptiometer (wavelength: 259 nm) • Column: CAPCELL PAK MG (inner diameter […], length 15 cm, particle size 5 μm, manufactured by Shiseido Co., Ltd. • Column temperature: constant temperature around 40° C. • Mobile phase A: trifluoroacetic acid solution (1:1000) • Mobile phase B: solution of trifluoroacetic acid in acetonitrile (1:1000) • Gradient program: As shown in the following Table 2, the mixing ratio of mobile phase A and mobile phase B is changed to control concentration gradient. A sample (crystal form III, ca. 50 mg) was dissolved in a mixture (4:1) of mobile phase B and mobile phase A to make an amount of 50 mL, which was used as a sample solution. This solution (1 mL) was precisely measured and a mixture (4:1) of mobile phase B and mobile phase A was added to precisely make an amount of 100 mL, which was used as a standard solution. The sample solution and standard solution ([…]) was applied to high performance liquid chromatography (HPLC) under the following conditions. The peak area of each solution was measured by automatic integration, and the purity was determined by the following formula. The purity is shown in the Table 7 below. • Detector: UV absorptiometer (wavelength: 259 nm) • Column: Waters XTerra MC C18 ([…], manufactured by Waters) • Column temperature: constant temperature around 40° C. • Mobile phase A: phosphoric acid is added to dipotassium hydrogenphosphate solution (1>1149) to adjust pH to 7.0 • Mobile phase B: acetonitrile • Gradient program: As shown in the following Table 3, the mixing ratio of mobile phase A and mobile phase B is changed to control concentration gradient. A stability test of each sample was performed under the following preservation conditions. The results of crystal form I are shown in Table 5, the results of crystal form II are shown in Table 6, and the results of crystal form III are shown in Table 7.
# [2] = Thermal analysis (DSC): enthalpy and extrapolated onset temperature at endothermic peak; details: for Endothermic peak Enthalpy / Endothermic peak Extrapolated onset temperature: crystal forms I and II 10° C./min, aluminum open pan, crystal form III 5° C./min, aluminum closed pan
# Description: This test aims at the measurement of the enthalpy and extrapolated onset temperature at an endothermic peak on the Differential Scanning Calorimetry (DSC) measurement curve. These values are among the indices of the stability of the above-mentioned crystal form I, crystal form II and crystal form III, and can be used as an index to specify the crystal form. Crystal form I and crystal form II were subjected to measurement using a Differential Scanning Calorimetry (DSC) measurement apparatus (DSC8240, manufactured by Rigaku Corporation), under atmosphere, measurement sample 5±1 mg, temperature rise rate: 10° C./min, aluminum open pan, and alumina oxide as a reference. The enthalpy and extrapolated onset temperature at an endothermic peak on the obtained DSC curve were determined. Crystal form III was subjected to measurement using a DSC measurement apparatus (DSC8240, manufactured by Rigaku Corporation), under atmosphere, measurement sample 5.0+0.5 mg, temperature rise rate: 5° C./min, aluminum closed pan, and alumina oxide as a reference. The enthalpy and extrapolated onset temperature at an endothermic peak on the obtained DSC curve were determined.
# [3] = Solubility test in various test solutions and pHs
# Experimental: This test aims at measurement of solubility of the crystal in various test solutions and under various pHs. The solubility is one of the indices of the stability of the above-mentioned crystal form I, crystal form II and crystal form III and can be used also as a reference indices of absorbability of crystal form by living organisms. Each sample (crystal form I type I, crystal form II and crystal form III, ca. 10 mg) was placed in a 10 mL centrifuge tube together with the following test solution (5 mL) and shaken with a shaker (SR-1M; manufactured by […] Co., Ltd.) for 14 hours. After shaking, the mixture was centrifuged (3000 rpm, 20 min) and the supernatant was filtered through 0.2 μm pore size-13 mm diameter polytetrafluoroethylene disk filter (Millex-LG; manufactured by Millipore Corporation). The measurement was performed by high performance liquid chromatography (HPLC).
# [4] = condition 2: 80° C., closed container, preserved for 3 days
# [5] = condition 3: 80° C., open container, preserved for 3 days
# [6] = condition 4: 60° C., closed container, preserved for 3 weeks
# [7] = condition 5: 60° C., open container, preserved for 3 weeks
# [8] = condition 6: 60° C./75% R.H., open container, preserved for 3 weeks
# [9] = Japanese Pharmacopoeia 1st fluid, pH 1.2, shaken 14 hours
# [10] = Japanese Pharmacopoeia 2nd fluid, pH 6.8, shaken 14 hours
# [11] = McIlvaine buffer pH 2.2, shaken 14 hours
# [12] = McIlvaine buffer pH 4, shaken 14 hours
# [13] = McIlvaine buffer pH 5, shaken 14 hours
# [14] = McIlvaine buffer pH 6.8, shaken 14 hours
# [15] = McIlvaine buffer pH 8, shaken 14 hours
# [16] = Purified water, shaken 14 hours
# [17] = condition 6: 60° C./75% R.H., closed container, preserved for 3 weeks
Stability under various preservation conditions (overall evaluation) [1],Purity ([1]; condition 1: Initial),"Appearance [1, 4]","XRD (X-ray powder diffraction pattern vs initial) [1, 4]","Purity [1, 4]","Appearance [1, 5]","XRD (X-ray powder diffraction pattern vs initial) [1, 5]","Purity [1, 5]","Appearance [1, 6]","XRD (X-ray powder diffraction pattern vs initial) [1, 6]","Purity [1, 6]","Appearance [1, 7]","XRD (X-ray powder diffraction pattern vs initial) [1, 7]","Purity [1, 7]","Appearance [1, 8]","XRD (X-ray powder diffraction pattern vs initial) [1, 8]","Purity [1, 8]",Endothermic peak Enthalpy [2],Endothermic peak Extrapolated onset temperature [2],"Solubility [3, 9]",Compound,further results
extremely stable,98.9%,No change,No change,98.9%,No change,No change,98.8%,No change,No change,98.9%,No change,No change,98.8%,No change,No change,98.9%,53.542 J/g,151.2 °C,0.9 µg/mL,"COc1cc2c(cc1Cc1cccc(Cl)c1F)c(=O)c(C(=O)O)cn2[C@H](CO)C(C)C [Crystal form II, 6-(3-chloro-2-fluorobenzyl)-1-[(S)-1-hydroxymethyl-2-methylpropyl]-7-methoxy-4-oxo-1,4-dihydroquinoline-3-carboxylic acid]","Solubility [3, 10]: 5.8 µg/mL; Solubility [3, 11]: 1.9 µg/mL; Solubility [3, 12]: 0.8 µg/mL; Solubility [3, 13]: 0.4 µg/mL; Solubility [3, 14]: 6.3 µg/mL; Solubility [3, 15]: 84 µg/mL; solubility at 14 h ([3]; McIlvaine buffer, pH 6, aqueous buffer, thermodynamic from solid, McIlvaine buffer pH 6, shaken 14 hours): 1 µg/mL; Solubility [3, 16]: 0.5 µg/mL; Solubility compared between crystal forms ([3]; all test solutions of Table 4): higher solubility than crystal form III"
extremely stable,98.71%,No change,No change,98.68%,No change,No change,98.69%,No change,No change,98.67%,No change,No change,98.66%,,,,81.404 J/g,162.1 °C,<0.1 µg/mL,"COc1cc2c(cc1Cc1cccc(Cl)c1F)c(=O)c(C(=O)O)cn2[C@H](CO)C(C)C [Crystal form III, 6-(3-chloro-2-fluorobenzyl)-1-[(S)-1-hydroxymethyl-2-methylpropyl]-7-methoxy-4-oxo-1,4-dihydroquinoline-3-carboxylic acid]","Solubility [3, 10]: 2.4 µg/mL; Solubility [3, 11]: <0.1 µg/mL; Solubility [3, 12]: <0.1 µg/mL; Solubility [3, 13]: <0.1 µg/mL; Solubility ([3]; McIlvaine buffer pH 6, shaken 14 hours): 0.7 µg/mL; Solubility [3, 14]: 0.7 µg/mL; Solubility [3, 15]: 23 µg/mL; Solubility [3, 16]: <0.1 µg/mL; Appearance [1, 17]: No change; XRD (X-ray powder diffraction pattern vs initial) [1, 17]: No change; Purity [1, 17]: 98.65%; Stability among three crystal forms judged from enthalpy and extrapolated onset temperature [2]: most stable form"

Compound,Stability under various preservation conditions (overall evaluation) [1],Purity ([1]; condition 1: Initial),"Appearance [1, 4]","XRD (X-ray powder diffraction pattern vs initial) [1, 4]","Purity [1, 4]","Appearance [1, 5]","XRD (X-ray powder diffraction pattern vs initial) [1, 5]","Purity [1, 5]","Appearance [1, 6]","XRD (X-ray powder diffraction pattern vs initial) [1, 6]","Purity [1, 6]","Appearance [1, 7]","XRD (X-ray powder diffraction pattern vs initial) [1, 7]","Purity [1, 7]","Appearance [1, 8]","XRD (X-ray powder diffraction pattern vs initial) [1, 8]","Purity [1, 8]",Endothermic peak Enthalpy [2],Endothermic peak Extrapolated onset temperature [2],"Solubility [3, 9]",further results
"COc1cc2c(cc1Cc1cccc(Cl)c1F)c(=O)c(C(=O)O)cn2[C@H](CO)C(C)C [Crystal form I, 6-(3-chloro-2-fluorobenzyl)-1-[(S)-1-hydroxymethyl-2-methylpropyl]-7-methoxy-4-oxo-1,4-dihydroquinoline-3-carboxylic acid]",unstable,99.1%,No change,No change,99.1%,No change,a part of the sample showed crystal transition to crystal form II,99.1%,No change,No change,99.1%,No change,a part of the sample showed crystal transition to crystal form II,99.1%,No change,No change,99.1%,51.080 J/g,150.3 °C,,
